Reference: PubChem BioAssay AID1159562 (GlaxoSmithKline (GSK), 2015)
Calls of active or inactive are those of the source. How the calls were made is not given here.

System: Trypanosoma brucei growth inhibition, luminescence
Assay: antitrypanosomal activity against T. brucei – luminescence (AID 1159562);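 further: parasites grew with compound for 24 h before the luminescence read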

## CCCCn1nnnc1CSc1nc(C)cc(C)c1C#N
  IC50: > 40 µM (inactive)

## O=C(Nc1nc(-c2ccccn2)cs1)N1C[C@H]2C[C@@]2(c2ccccc2)C1
  IC50: 0.63 µM

## O=C(Nc1nc(-c2ccccn2)cs1)C1CCc2ccccc2C1 (stereo not drawn)
  IC50: 3.2 µM

## O=C(CCCNC(=O)c1ccc(Cl)cc1)Nc1nc(-c2ccccn2)cs1
  IC50: 13 µM

## COc1ccc(S(=O)(=O)Nc2ccccc2OC)cc1NC(=O)CCCc1c[nH]c2ccccc12
  IC50: 32 µM

## NS(=O)(=O)c1ccc(CNC(=O)c2ccc([N+](=O)[O-])s2)cc1
  IC50: 0.25 µM

## CC(=Cc1ccccc1)CN1CCC(=O)N(Cc2cccnc2)CC1
  IC50: > 40 µM (inactive)

## COc1cc(-c2noc(CC#N)n2)ccc1OC(F)F
  IC50: 0.63 µM

## COc1ccc(-c2ccc3nnc(-c4ccc(O)c(OC)c4)n3c2)cn1
  IC50: 2.5 µM

## Cn1nc([N+](=O)[O-])nc1N1CCCCC1
  IC50: > 40 µM (inactive)

## Cc1ccc2c(c1)SC(C(=O)Nc1n[nH]c(-c3ccccn3)n1)C2 (stereo not drawn)
  IC50: > 40 µM (inactive)

## COc1ccc([N+](=O)[O-])cc1NC(=O)Nc1cccc(Cl)c1
  IC50: 20 µM

## COc1ccccc1-c1c(C)[nH]c2nc(N)nc(C)c12
  IC50: > 40 µM (inactive)

## O=C(COc1nn(-c2ccccc2)c2ncccc12)NCc1ccccc1
  IC50: > 40 µM (inactive)

## O=C(CSc1nnc(-c2ccc3c(c2)OCO3)o1)N(Cc1ccco1)CC(F)(F)F
  IC50: > 40 µM (inactive)

## CNS(=O)(=O)c1ccccc1Nc1nc(Nc2cc(C)nn2C)ncc1Cl
  IC50: 0.1 µM

## CCC(=O)Nc1ccc(C(=O)Nc2ccccc2-c2ccccc2)cc1
  IC50: 25 µM

## CC(C)N(C(=O)CN1C(=O)C(N)C(=O)N(c2ccccc2)c2ccccc21)c1ccccc1 (stereo not drawn)
  IC50: > 40 µM (inactive)

## Cc1ccc(Nc2nc(C3CCCN3Cc3ccn[nH]3)cs2)nc1 (stereo not drawn)
  IC50: 4 µM

## COc1ccc(Nc2nc(-c3ccccn3)cc(N3CCCC(O)C3)n2)cc1 (stereo not drawn)
  IC50: 13 µM

## CNC(=O)C1Cc2ccccc2N1C(=O)Cc1ccccc1 (stereo not drawn)
  IC50: 1 µM

## O=C(NC1CCN(C2Cc3ccc(NS(=O)(=O)c4cc(F)cc(F)c4)cc3C2)CC1)C1CC1 (stereo not drawn)
  IC50: 0.79 µM

## CC(=O)NCCNc1cc(-c2ccnc(Nc3cccc(Cl)c3)n2)ccn1
  IC50: 0.2 µM

## O=C(Nc1ccc(S(=O)(=O)N2CCCC2)cc1)c1ccc([N+](=O)[O-])s1
  IC50: 0.2 µM

## CNc1cc(C)nc(C2CN(C(=O)c3n[nH]c4ccccc34)CCO2)c1 (stereo not drawn)
  IC50: > 40 µM (inactive)

## CC1=NN(C(=O)CCn2cnc([N+](=O)[O-])n2)C(O)(C(F)(F)F)C1 (stereo not drawn)
  IC50: > 40 µM (inactive)

## COCCn1cnc2cc(NC(=O)C3CCCCC3)cc(C(=O)N3CCc4sccc4C3)c21
  IC50: 1 µM

## N#Cc1nc(C=Cc2ccccc2)oc1NCc1cccnc1
  IC50: 32 µM

## COc1ccc(C2=NCC(CSc3nnc(-c4ccc5c(c4)OCO5)o3)S2)cc1 (stereo not drawn)
  IC50: > 40 µM (inactive)

## O=C1CCCCCC1(Cc1cnc[nH]1)c1ccc(Cl)cc1Cl (stereo not drawn)
  IC50: > 40 µM (inactive)

## COc1ccc(Nc2nc(-c3ccccn3)cs2)c(OC)c1
  IC50: 25 µM

## CCC(=O)Nc1ccccc1C(=O)Nc1ccccn1
  IC50: 0.4 µM

## N#Cc1cccc(CNc2ccc(-c3cnn(CC4CC4)c(=O)c3C#N)cc2)c1
  IC50: 13 µM

## O=C(Cn1cnc([N+](=O)[O-])n1)Nc1ccc(Cl)cc1C(=O)c1ccccc1
  IC50: 32 µM

## CC(c1ccccn1)N(C)Cc1nc2ccccc2n1C(C)C (stereo not drawn)
  IC50: 10 µM

## CN1CCN(c2nc(-c3ccc(Cl)cc3)c3c(N)n(C)nc3n2)CC1
  IC50: 32 µM

## Cc1cc(=O)n2nc(Oc3ccc(C#N)cc3Cl)sc2n1
  IC50: 0.32 µM

## CC(C)c1sc(Cl)nc1C(=O)NCCc1nc(C(=O)Nc2ccc3c(c2)OCO3)cs1
  IC50: 25 µM

## COCCn1c(-c2ccc3c(c2)OCO3)cnc1NCc1ccccc1OC
  IC50: 25 µM

## COc1ccc2nc(N(Cc3cccnc3)C(=O)C3CCC3)sc2c1
  IC50: 40 µM

## COc1ccc2ncc(F)c(NC(=O)C3(O)CCC(NCc4ccc5c(c4)OCCO5)CC3)c2n1 (stereo not drawn)
  IC50: 1.6 µM

## Cc1sc(C)c(C(F)(F)F)c1CNCCCNc1cc(=O)c2ccccc2[nH]1
  IC50: 0.013 µM

## COc1ccc(CN2C(=O)C(O)(CC(=O)c3ccncc3)c3cc(Br)ccc32)cc1OC (stereo not drawn)
  IC50: 0.63 µM

## Cn1nccc1NC(=O)Cn1ccc(-c2ccncc2)n1
  IC50: 0.63 µM

## NCc1ccc2c(Cl)cc(Cl)c(O)c2n1
  IC50: 0.2 µM

## CCn1c(-c2nonc2N)nc2c([C@@H](C)O)ncc(O[C@H](CN)c3ccccc3)c21
  IC50: 0.79 µM

## O=C(NCCc1nc(-c2ccc(F)c(F)c2)n[nH]1)C1CCCCC1
  IC50: 1 µM

## COc1ccc(C(=O)NC2CCN(CCn3c(=O)ccc4ncc(F)cc43)CC2)cc1Cl
  IC50: 0.25 µM

## CC(C)C[C@H](NC(=O)c1ccc(-c2ccccc2)o1)C(=O)NC1(C#N)CC1
  IC50: 0.05 µM

## O=C(COc1ncnc2cc([N+](=O)[O-])ccc12)NC(=O)NC1CCCCC1
  IC50: > 40 µM (inactive)

## CC(=O)Nc1ccc(CN2CCC(N3CC(c4ccccc4)(c4ccccc4)OCC3=O)CC2)cc1
  IC50: 0.4 µM

## C[C@@H](Oc1cc(-n2cnc3ccc(C(O)CO)cc32)sc1C(N)=O)c1ccccc1C(F)(F)F (stereo partly drawn)
  IC50: 0.79 µM

## CC(=O)Nc1ccc(-c2ccnc(Nc3cccc(C#N)c3)n2)cc1
  IC50: 0.79 µM

## O=C1CN(C(=O)c2cccc(Nc3ncc(-c4ccc5c(c4)OCO5)cn3)c2)CCN1
  IC50: > 50 µM (inactive)

## C[C@@H](Oc1cc(-n2cnc3ccc(CC(O)CO)cc32)sc1C(N)=O)c1ccccc1Cl (stereo partly drawn)
  IC50: 0.79 µM

## O=C(Cc1ccccc1)Nc1ccccc1C(=O)Nc1nccs1
  IC50: 0.25 µM

## CCCN1CCN(Cc2ccc(S(=O)(=O)Nc3cccc(C)c3)cc2)CC1
  IC50: > 40 µM (inactive)

## Cc1ccccc1CNC(=O)CN(Cc1ccccn1)Cc1ccccn1
  IC50: 20 µM

## O=C(N[C@H](CO)c1ccccc1)c1ccc(-c2c[nH]c3nccc(C(F)(F)F)c23)s1
  IC50: 0.4 µM

## COc1cccc(CN(C)Cc2nc(N)c3c(C)c(C)sc3n2)c1
  IC50: 4 µM

## O=C1CSC(c2cccnc2)N1c1ccc(Cl)cc1Cl (stereo not drawn)
  IC50: > 40 µM (inactive)

## COc1ccc(CN(C)Cc2ccncc2)cc1-c1ccc(S(=O)(=O)NC2CCC2)s1
  IC50: 20 µM

## COc1ccc2ncc(F)c(CCN3CC[C@@H](NC(=O)c4cc5c(s4)CCC5)[C@@H](O)C3)c2n1
  IC50: 0.32 µM

## Cc1[nH]nc(C(F)(F)F)c1NC(=O)CCn1cc(Cl)c([N+](=O)[O-])n1
  IC50: 0.79 µM

## CCN(CC)c1ccc(S(=O)(=O)N(CC)CC)c2nonc12
  IC50: 25 µM

## COc1ccc(C2CC(c3ccccc3Cl)=NN2C(=O)CNC(=O)C2CCC2)cc1 (stereo not drawn)
  IC50: 0.5 µM

## CC1CCCCN1C(=O)NCCc1coc(-c2ccc(F)cc2)n1 (stereo not drawn)
  IC50: 0.16 µM

## Cc1ccc(NC(=O)c2ccnc(N3CCCC3)c2)cc1-c1ccsc1C(N)=O
  IC50: 0.063 µM

## CC1CN(S(=O)(=O)c2ccc(NC(=O)c3cc(C4CC4)nc4c3cnn4C(C)C)cc2)CC(C)O1 (stereo not drawn)
  IC50: 6.3 µM

## Cc1ccnc(NS(=O)(=O)c2ccc(NC(=O)c3ccc([N+](=O)[O-])s3)cc2)n1
  IC50: 0.4 µM

## N#Cc1ccc(S(=O)(=O)N2CCN(Cc3cccc(-c4ccncc4)c3)CC2)cc1
  IC50: 20 µM

## Cc1cn[nH]c1C1CCCN(Cc2nc3ccccc3n2C)C1 (stereo not drawn)
  IC50: 7.9 µM

## O=C1NCCn2ccc(Nc3nc(NC4CCC(O)CC4)ncc3Cl)c21 (stereo not drawn)
  IC50: 0.63 µM

## Cc1nn(-c2ccccc2)nc1CNC(=O)CN(Cc1ccccn1)Cc1ccccn1
  IC50: 10 µM

## COc1ccc(NC(=O)c2ccc(NC(=O)CN(c3ccccc3C)S(C)(=O)=O)cc2)cc1
  IC50: 0.79 µM

## Cc1cccc(NS(=O)(=O)c2cnc3sc(C)cn3c2=O)c1
  IC50: > 40 µM (inactive)

## Cc1cc(C)n(-c2nc(NC(C)(C)C)nc(N3CCOCC3)n2)n1
  IC50: 4 µM

## OC1CCC(Nc2nccc(-c3sc(C4CCOCC4)nc3-c3ccc(F)c(F)c3)n2)CC1 (stereo not drawn)
  IC50: 4 µM

## NCc1csc(Nc2cc(Oc3ccccc3)ncn2)n1
  IC50: 0.79 µM

## CC(=O)Nc1ccc(-c2csc(NC(=O)c3ccc([N+](=O)[O-])s3)n2)cc1
  IC50: 0.16 µM

## COc1ccc(C2C3CCCCC3(O)CCN2CC(=O)Nc2ccc(Cl)cc2Cl)cc1 (stereo not drawn)
  IC50: 25 µM

## c1ccc(Nc2nc3ccccc3[nH]2)nc1
  IC50: 25 µM

## N#Cc1cc([N+](=O)[O-])ccc1NC1CCCCCC1
  IC50: 3.2 µM

## NC(N)=Nc1nc(-c2ccc(NC(N)=NCCN3CCCC3)cc2)cs1
  IC50: 0.1 µM

## C=CCn1nc([N+](=O)[O-])nc1Oc1ccc(Cl)cc1Cl
  IC50: > 40 µM (inactive)

## CNC(=O)C1Cc2ccccc2N1C(=O)Cc1ccc(F)cc1 (stereo not drawn)
  IC50: 0.25 µM

## CC(C)(C)Nc1nc(-c2ccccn2)nc2ccccc12
  IC50: 6.3 µM

## CCNc1cc(-c2ccccn2)nc(Nc2ccc(OC)cc2)n1
  IC50: 10 µM

## CC(Cn1ccnc1)NC(=O)C1CC1c1cccc(Cl)c1Cl (stereo not drawn)
  IC50: > 40 µM (inactive)

## CN(CCOc1ccc(Cl)cc1)Cc1nc(N)nc(N(C)C)n1
  IC50: 16 µM

## CC(=O)Nc1cccc(Nc2ncnc3nc[nH]c23)c1
  IC50: 0.4 µM

## Clc1ccc(Sc2cnccc2N2CCOCC2)cc1
  IC50: > 40 µM (inactive)

## O=C(CCCn1cnc([N+](=O)[O-])n1)Nc1cccc(Cl)c1
  IC50: > 40 µM (inactive)

## CC(C)CC(=O)NC(c1cccs1)c1ccc2cccnc2c1O (stereo not drawn)
  IC50: 0.63 µM

## O=C(Cc1ccccc1)Nc1[nH]nc2sc(C(=O)NC3CCCC3)cc12
  IC50: 0.32 µM

## Cc1cc(-c2cccc3ccccc23)nc2nc(N)nc(N)c12
  IC50: 20 µM

## COc1ccc(C(=O)Nc2cc(C(F)(F)F)ccc2N2CCOCC2)c(OC)c1
  IC50: 25 µM

## Cc1ccc2sc(NC(=O)Cn3cnc([N+](=O)[O-])n3)nc2c1
  IC50: > 40 µM (inactive)

## Cc1cc(Nc2cc(C3CC3)[nH]n2)nc(N2CCC[C@H]2C(N)=O)n1
  IC50: 0.063 µM

## O=C1CN(C2CCCc3c(OCc4ccncc4)cccc32)C(=O)N1C1CCCCC1 (stereo not drawn)
  IC50: > 40 µM (inactive)

## Cc1ccc(C)c(-n2nnnc2Sc2nc([N+](=O)[O-])nn2C)c1
  IC50: 16 µM

## O=C(CN(Cc1ccccn1)Cc1ccccn1)NCc1ccc2c(c1)OCO2
  IC50: 20 µM

## CCS(=O)(=O)Nc1ccc(C2=NN(C(=O)c3cccs3)C(c3ccccc3OC)C2)cc1 (stereo not drawn)
  IC50: 16 µM

## O=C(c1ccc(O)c(Cl)c1)N1CCN(c2cnccn2)CC1
  IC50: > 40 µM (inactive)

## Fc1ccc(Nc2nc(-c3ccccn3)cs2)cc1
  IC50: 25 µM

## O=S(=O)(c1cccc(CSc2nnc(-c3ccc4c(c3)OCO4)o2)c1)N1CCOCC1
  IC50: > 40 µM (inactive)

## Cc1[nH]n2c(=O)c3c(nc2c1-c1ccc(Cl)cc1)CCCC3
  IC50: 0.32 µM

## O=C(Nc1cccc(S(=O)(=O)Nc2ccc(Br)cc2)c1)c1ccc([N+](=O)[O-])s1
  IC50: 0.4 µM
